Assay results taken from ChEMBL document CHEMBL3885861, “Open TG-GATES”.

Organism: Rattus norvegicus
Test: Open TG-GATES - Regimen: Single
Type: toxicity, organism-based, Sprague-Dawley
Set-up: regimen Single, gender Male, age 6 weeks
Conditions: in vivo, po, route gavage; for APTT / Bas / Eos / Fbg / Hb / Ht / Lym / MCH / MCHC / MCV / Mono / Neu / PT / RBC / Ret / WBC / Plat: tissue Blood; for KIDNEY_L / KIDNEY_R / KIDNEY_TOTAL: tissue Kidney; for ALP / ALT / AST / BUN / CRE / Ca / DBIL / GLC / K / LDH / Na / PL / RALB / TBIL / TC / TG / TP / gamma-GTP / IP: tissue Plasma; for LIVER: tissue Liver
[1] = 50 mg/kg, 3 h, dose level Middle

Oc1ncnc2[nH]ncc12 [ALLOPURINOL]
APTT (15 mg/kg, 3 h, dose level Low): 16.3 s
Bas (15 mg/kg, 3 h, dose level Low): 0%
Eos (15 mg/kg, 3 h, dose level Low): 1%
Fbg (15 mg/kg, 3 h, dose level Low): 209.6 mg/dL
Hb (15 mg/kg, 3 h, dose level Low): 13.9 g/dL
Ht (15 mg/kg, 3 h, dose level Low): 41.2%
Lym (15 mg/kg, 3 h, dose level Low): 80.4%
MCH (15 mg/kg, 3 h, dose level Low): 22 pg
MCHC (15 mg/kg, 3 h, dose level Low): 33.8%
MCV (15 mg/kg, 3 h, dose level Low): 65 fL
Mono (15 mg/kg, 3 h, dose level Low): 7.4%
Neu (15 mg/kg, 3 h, dose level Low): 11.2%
PT (15 mg/kg, 3 h, dose level Low): 12.5 s
RBC (15 mg/kg, 3 h, dose level Low): 636 x10_4/ul
Ret (15 mg/kg, 3 h, dose level Low): 8.4%
WBC (15 mg/kg, 3 h, dose level Low): 99.2 x10_2/uL
KIDNEY_L (15 mg/kg, 3 h, dose level Low): 1 g
KIDNEY_R (15 mg/kg, 3 h, dose level Low): 1 g
KIDNEY_TOTAL (15 mg/kg, 3 h, dose level Low): 2 g
ALP (15 mg/kg, 3 h, dose level Low): 884.4 IU/L
ALT (15 mg/kg, 3 h, dose level Low): 35.4 IU/L
AST (15 mg/kg, 3 h, dose level Low): 64.4 IU/L
BUN (15 mg/kg, 3 h, dose level Low): 12.4 mg/dL
CRE (15 mg/kg, 3 h, dose level Low): 0.5 mg/dL
Ca (15 mg/kg, 3 h, dose level Low): 11.3 mg/dL
DBIL (15 mg/kg, 3 h, dose level Low): 0.086 mg/dL
GLC (15 mg/kg, 3 h, dose level Low): 183.8 mg/dL
K (15 mg/kg, 3 h, dose level Low): 4.9 meq/L
LDH (15 mg/kg, 3 h, dose level Low): 115.4 IU/L
Na (15 mg/kg, 3 h, dose level Low): 139.2 meq/L
PL (15 mg/kg, 3 h, dose level Low): 132.8 mg/dL
RALB (15 mg/kg, 3 h, dose level Low): 3.7 g/dL
TBIL (15 mg/kg, 3 h, dose level Low): 0.4 mg/dL
TC (15 mg/kg, 3 h, dose level Low): 73.4 mg/dL
TG (15 mg/kg, 3 h, dose level Low): 54.6 mg/dL
TP (15 mg/kg, 3 h, dose level Low): 5.5 g/dL
gamma-GTP (15 mg/kg, 3 h, dose level Low): 1.6 IU/L
TERMINAL_BW (15 mg/kg, 6 h, dose level Low): 209.5 g
APTT (15 mg/kg, 6 h, dose level Low): 16.8 s
Bas (15 mg/kg, 6 h, dose level Low): 0%
Eos (15 mg/kg, 6 h, dose level Low): 0.4%
Fbg (15 mg/kg, 6 h, dose level Low): 206.8 mg/dL
Hb (15 mg/kg, 6 h, dose level Low): 13.6 g/dL
Ht (15 mg/kg, 6 h, dose level Low): 40.5%
Lym (15 mg/kg, 6 h, dose level Low): 79%
MCH (15 mg/kg, 6 h, dose level Low): 21.8 pg
MCHC (15 mg/kg, 6 h, dose level Low): 33.5%
MCV (15 mg/kg, 6 h, dose level Low): 65.3 fL
Mono (15 mg/kg, 6 h, dose level Low): 6.2%
Neu (15 mg/kg, 6 h, dose level Low): 14.2%
PT (15 mg/kg, 6 h, dose level Low): 12.4 s
Plat (15 mg/kg, 6 h, dose level Low): 109.1 x10_4/uL
RBC (15 mg/kg, 6 h, dose level Low): 620.2 x10_4/ul
Ret (15 mg/kg, 6 h, dose level Low): 8.1%
WBC (15 mg/kg, 6 h, dose level Low): 101.3 x10_2/uL
KIDNEY_L (15 mg/kg, 6 h, dose level Low): 1 g
KIDNEY_R (15 mg/kg, 6 h, dose level Low): 1 g
KIDNEY_TOTAL (15 mg/kg, 6 h, dose level Low): 2 g
LIVER (15 mg/kg, 6 h, dose level Low): 9.6 g
ALP (15 mg/kg, 6 h, dose level Low): 695 IU/L
ALT (15 mg/kg, 6 h, dose level Low): 30 IU/L
AST (15 mg/kg, 6 h, dose level Low): 58 IU/L
BUN (15 mg/kg, 6 h, dose level Low): 11 mg/dL
CRE (15 mg/kg, 6 h, dose level Low): 0.5 mg/dL
Ca (15 mg/kg, 6 h, dose level Low): 11.4 mg/dL
DBIL (15 mg/kg, 6 h, dose level Low): 0.024 mg/dL
GLC (15 mg/kg, 6 h, dose level Low): 187 mg/dL
IP (15 mg/kg, 6 h, dose level Low): 10.1 mg/dL
K (15 mg/kg, 6 h, dose level Low): 4.8 meq/L
LDH (15 mg/kg, 6 h, dose level Low): 74.8 IU/L
Na (15 mg/kg, 6 h, dose level Low): 138.4 meq/L
PL (15 mg/kg, 6 h, dose level Low): 126.6 mg/dL
RALB (15 mg/kg, 6 h, dose level Low): 3.7 g/dL
TBIL (15 mg/kg, 6 h, dose level Low): 0.3 mg/dL
TC (15 mg/kg, 6 h, dose level Low): 67.6 mg/dL
TG (15 mg/kg, 6 h, dose level Low): 60.8 mg/dL
TP (15 mg/kg, 6 h, dose level Low): 5.5 g/dL
gamma-GTP (15 mg/kg, 6 h, dose level Low): 1 IU/L
TERMINAL_BW (15 mg/kg, 9 h, dose level Low): 204 g
APTT (15 mg/kg, 9 h, dose level Low): 16.6 s
Bas (15 mg/kg, 9 h, dose level Low): 0%
Eos (15 mg/kg, 9 h, dose level Low): 1.2%
Fbg (15 mg/kg, 9 h, dose level Low): 221.6 mg/dL
Hb (15 mg/kg, 9 h, dose level Low): 13.6 g/dL
Ht (15 mg/kg, 9 h, dose level Low): 40.7%
Lym (15 mg/kg, 9 h, dose level Low): 66.4%
MCH (15 mg/kg, 9 h, dose level Low): 21.7 pg
MCHC (15 mg/kg, 9 h, dose level Low): 33.4%
MCV (15 mg/kg, 9 h, dose level Low): 65 fL
Mono (15 mg/kg, 9 h, dose level Low): 11.8%
Neu (15 mg/kg, 9 h, dose level Low): 20.4%
PT (15 mg/kg, 9 h, dose level Low): 12.3 s
RBC (15 mg/kg, 9 h, dose level Low): 626.6 x10_4/ul
Ret (15 mg/kg, 9 h, dose level Low): 7.9%
WBC (15 mg/kg, 9 h, dose level Low): 92.7 x10_2/uL
KIDNEY_L (15 mg/kg, 9 h, dose level Low): 1 g
KIDNEY_R (15 mg/kg, 9 h, dose level Low): 1 g
KIDNEY_TOTAL (15 mg/kg, 9 h, dose level Low): 1.9 g
LIVER (15 mg/kg, 9 h, dose level Low): 9.1 g
ALP (15 mg/kg, 9 h, dose level Low): 837 IU/L
ALT (15 mg/kg, 9 h, dose level Low): 27.6 IU/L
AST (15 mg/kg, 9 h, dose level Low): 58.8 IU/L
BUN (15 mg/kg, 9 h, dose level Low): 13 mg/dL
CRE (15 mg/kg, 9 h, dose level Low): 0.4 mg/dL
DBIL (15 mg/kg, 9 h, dose level Low): 0.042 mg/dL
GLC (15 mg/kg, 9 h, dose level Low): 198.8 mg/dL
K (15 mg/kg, 9 h, dose level Low): 4.8 meq/L
LDH (15 mg/kg, 9 h, dose level Low): 74.6 IU/L
Na (15 mg/kg, 9 h, dose level Low): 138.6 meq/L
PL (15 mg/kg, 9 h, dose level Low): 129.8 mg/dL
RALB (15 mg/kg, 9 h, dose level Low): 3.8 g/dL
TBIL (15 mg/kg, 9 h, dose level Low): 0.3 mg/dL
TC (15 mg/kg, 9 h, dose level Low): 69.2 mg/dL
TG (15 mg/kg, 9 h, dose level Low): 53.2 mg/dL
TP (15 mg/kg, 9 h, dose level Low): 5.7 g/dL
gamma-GTP (15 mg/kg, 9 h, dose level Low): 1.4 IU/L
TERMINAL_BW (15 mg/kg, 24 h, dose level Low): 224.8 g
APTT (15 mg/kg, 24 h, dose level Low): 16.1 s
Bas (15 mg/kg, 24 h, dose level Low): 0%
Eos (15 mg/kg, 24 h, dose level Low): 1.2%
Fbg (15 mg/kg, 24 h, dose level Low): 213.8 mg/dL
Hb (15 mg/kg, 24 h, dose level Low): 13.6 g/dL
Ht (15 mg/kg, 24 h, dose level Low): 40.8%
Lym (15 mg/kg, 24 h, dose level Low): 79.4%
MCH (15 mg/kg, 24 h, dose level Low): 21.8 pg
MCHC (15 mg/kg, 24 h, dose level Low): 33.3%
MCV (15 mg/kg, 24 h, dose level Low): 65.4 fL
Mono (15 mg/kg, 24 h, dose level Low): 7.2%
Neu (15 mg/kg, 24 h, dose level Low): 12.4%
PT (15 mg/kg, 24 h, dose level Low): 12.2 s
Plat (15 mg/kg, 24 h, dose level Low): 113.4 x10_4/uL
RBC (15 mg/kg, 24 h, dose level Low): 623 x10_4/ul
Ret (15 mg/kg, 24 h, dose level Low): 7.9%
WBC (15 mg/kg, 24 h, dose level Low): 93.3 x10_2/uL
KIDNEY_L (15 mg/kg, 24 h, dose level Low): 1 g
KIDNEY_R (15 mg/kg, 24 h, dose level Low): 1 g
KIDNEY_TOTAL (15 mg/kg, 24 h, dose level Low): 2 g
ALP (15 mg/kg, 24 h, dose level Low): 884.8 IU/L
ALT (15 mg/kg, 24 h, dose level Low): 33.2 IU/L
AST (15 mg/kg, 24 h, dose level Low): 61.6 IU/L
BUN (15 mg/kg, 24 h, dose level Low): 17.8 mg/dL
CRE (15 mg/kg, 24 h, dose level Low): 0.5 mg/dL
DBIL (15 mg/kg, 24 h, dose level Low): 0.024 mg/dL
GLC (15 mg/kg, 24 h, dose level Low): 187.4 mg/dL
IP (15 mg/kg, 24 h, dose level Low): 8 mg/dL
K (15 mg/kg, 24 h, dose level Low): 5 meq/L
LDH (15 mg/kg, 24 h, dose level Low): 85.2 IU/L
Na (15 mg/kg, 24 h, dose level Low): 138.8 meq/L
PL (15 mg/kg, 24 h, dose level Low): 149.8 mg/dL
RALB (15 mg/kg, 24 h, dose level Low): 3.6 g/dL
TBIL (15 mg/kg, 24 h, dose level Low): 0.3 mg/dL
TC (15 mg/kg, 24 h, dose level Low): 78 mg/dL
TG (15 mg/kg, 24 h, dose level Low): 91.4 mg/dL
TP (15 mg/kg, 24 h, dose level Low): 5.7 g/dL
gamma-GTP (15 mg/kg, 24 h, dose level Low): 1.8 IU/L
TERMINAL_BW [1]: 210.9 g
APTT [1]: 16.6 s
Bas [1]: 0%
